Key:
[1] = test system: lens epithelial cells from bovine anterior capsules; assay: Outgrowth of lens epithelial cells from bovine anterior capsules on treated slides; assay type: cell-based
Procedure: The tension ring is then further treated with glutaraldehyde (GA), rinsed of excess GA, and then treated with an MTX-protein conjugate. […] Control tension rings are treated with unconjugated protein (no MTX).
Outgrowth was followed for six days.

rabbit LECs = details: mechanism unknown; cited from earlier work
[2] = test system: epithelial cells of the lens capsule; details: solution instilled into the anterior chamber after lens removal; cited from earlier work
[3] = treated slides, outgrowth followed for six days, first evaluation

bovine serum albumin [protein (alone)]
outgrowth of lens epithelial cells [1, 3]: allowed good outgrowth

O=C(O[C@@H]1Cc2c(O)cc(O)cc2O[C@@H]1c1cc(O)c(O)c(O)c1)c1cc(O)c(O)c(O)c1 [(−)-epigallocatechin-3-gallate (EGCG), (−)-epigallocatechin-3-gallate]
inhibition of proliferation of rabbit LECs (rabbit LECs): inhibit the proliferation

covalent conjugate of MTX: covalent conjugate of MTX with bovine serum albumin prepared using ECDI, attached via glutaraldehyde to the ethylenediamine plasma-treated surface
outgrowth of lens epithelial cells ([1]; slides rinsed and evaluated again, second set of lens capsules): inhibited outgrowth
outgrowth of lens epithelial cells ([1]; third set of cells on re-used slides): somewhat inhibited, but not completely
outgrowth of lens epithelial cells [1, 3]: inhibited cell outgrowth

CN(Cc1cnc2nc(N)nc(N)c2n1)c1ccc(C(=O)N[C@@H](CCC(=O)O)C(=O)O)cc1 [MTX (alone), methotrexate]
destroying epithelial cells of the lens capsule which remain after cataract surgery [2]: effective
outgrowth of lens epithelial cells ([1]; subsequent evaluations after the first evaluation period): not during subsequent evaluations
outgrowth of lens epithelial cells [1, 3]: inhibited outgrowth
